Key:
[1] = tested on: human peripheral blood leukocytes; assay: chemiluminescence of peripheral blood leukocytes (oxidative burst response); format: cell-based; settings: fairly low concentrations
Text: Chemiluminescence is a measure of oxidative burst response. […] As the actual tissue damage caused by inflammatory cells such as PMN's and monocytes/macrophages, through the release of proteolytic and hydrolytic enzymes as well as toxic reactive oxygen radicals are activated in the tissue and joints, the isolated compound should be a potent inhibitor of the oxidative burst response of the human peripheral blood polymorphonuclear leukocytes, the most important and abundant inflammatory cells. It is therefore believed that the glycosides of mono- or diacylglycerol compounds, especially GOPO, are responsible for the anti inflammatory effects of rose hip extracts.

[2] = aqueous solutions as described in WO03/43613, storage; cited from earlier work
mononuclear leucocytes = settings: WO 03/043613 A1; cited from earlier work
[3] = tested on: polymorphonuclear leucocytes; settings: WO 03/043613 A1; cited from earlier work

Question: Which “chemiluminescence of human peripheral blood leukocytes” value [1] does the source give for `CC/C=C\C/C=C\C/C=C\CCCCCCCC(=O)OCC(CO[C@@H]1O[C@H](CO)[C@H](O)[C@H](O)[C@H]1O)OC(=O)CCCCCCC/C=C\C/C=C\C/C=C\CC` (stereo partly drawn) [GOPO, 3-β-D-galactopyranosyloxy-2-(octadeca-9Z,12Z,15Z-trienoyloxy)propanyl octadeca-9Z,12Z,15Z-trienoate] here?
Answer: inhibited

Question: What about the “stability in aqueous solutions” value [2] of the same compound?
Answer: lack stability

Question: What about the “chemotaxis of mononuclear leucocytes” value (mononuclear leucocytes) of the same compound?
Answer: alleviating

Question: And the “chemiluminescence of polymorphonuclear leucocytes” value [3]?
Answer: alleviating

From patent publication US20110257110A1, “Composition comprising a glycoside of a mono- or diacylglycerol compound and an oil rich in n-3 polyunsaturated fatty acids, a method of producing the composition and use of the composition” (HYBEN VITAL LICENS APS, priority 2008, published 2011)
